According to PMC12125420, “Yinling Qushi Granule as a therapeutic agent for metabolic syndrome: pharmacological, molecular targets, and pharmacokinetic insights” (Advanced Biotechnology, 2025):

Experiment: Pharmacokinetics of absorbed triterpenoid prototypes in rat serum after oral YLQS extract
Conditions: male, Sprague-Dawley, 36.99 g/kg
Procedure: (§1) SPF grade Sprague–Dawley rats (n = 6, male, 8–10-week-old, 300 ± 20 g) were obtained from the Guangdong Medical Laboratory Animal Center (Guangzhou, China, Certificate No. SCXK 2022–0002), maintained in environmental conditions with a temperature of 20–25 °C, humidity of 55 ± 15%, and a 12-h light/dark cycle. Animals were acclimated for 7 days prior to drug administration. The experimental procedures and protocols have been approved by the Animal Ethics Committee of the School of Life Sciences, Sun Yat-sen University (Ethics approval No. SYSU-lS-IACUC- 2024–0130, Guangzhou, China), with every effort being made to minimize the suffering of the animals.
(§2) In order to investigate the absorbable components in vivo, Yinling Qushi (YLQS) extract was prepared as follows: 77.76 g of Poria cocos (Schw.) Wolf (Fuling, FL), 29.16 g of Atractylodes macrocephala Koidz. (Baizhu, BZ), 12.96 g of Zingiber officinale Rosc. (Ganjiang, GJ), 19.44 g of Polyporus umbellatus (Pers.) Fries (Zhuling, ZL), 19.44 g of Cinnamomum cassia Presl (Guizhi, GZ), 24.30 g Artemisia capillaris Thunb. (Yinchen, YC), 19.44 g Glehnia littoralis Fr.Schmidt ex Miq. (Beishashen, BSS) and 19.44 g of Glycyrrhiza uralensis Fisch. (Gancao, GC) were weighted. The weighted herbs were mixed thoroughly and extracted with 750 mL boiling water for 1 h, twice. The aqueous extracts were combined, filtered, and concentrated by rotary evaporation to a total volume of 12 mL, with a final extraction yield of 18.5 g crude herbal materials per 1 mL of Yinling Qushi (YLQS) extract.
(§3) SD Rats were fasted for 12 h, followed by orally administrated with Yinling Qushi (YLQS) extract at a dose of 36.99 g/kg (6.7 mL/kg). 200 μL of venous blood was collected at 0 min, 15 min, 30 min, 1 h, 2 h, 4 h, 6 h, 8 h, 10 h, 12 h, and 24 h post-gavage. Serum samples were freshly prepared by centrifugation (3,000 g, 20 min, 4 ℃), supernatant collection and storage at − 80 ℃ till analysis.
(§4) For serum extraction, 90 μL serum of indicated time points were pre-mixed with 10 μL IS working solution (myristic acid-D27, 10 μg/mL in methanol). 1 mL ethyl acetate was added to 100 μL premixed serum, vortexed vigorously for 5 min, and centrifuged (10,000 g, 15 min, 4 ℃) for protein precipitation. 700 μL of supernatant was transferred and evaporated to dryness under nitrogen flow. Prior to assay, samples were re-suspended with 100 μL methanol: distill water solution (4:1, v/v), sonicated and vortex-mixing for dissolve completely, and centrifuged (10,000 g, 20 min, 4 ℃). 10 μL of supernatant was analyzed using a connected system of AQUITY UPLC (Waters Corp., Milford, MA, USA) hybrid ZenoTOF 7600-MS/MS system (AB Sciex, Framingham, MA, USA) with electrospray ionization (ESI) source.
(§5) A reversed-phase Kinetex C18 column (2.1 × 100 mm, 2.6 μm, Phenomenex, CA, USA) was used, with 0.3 mL/min flow rate at 40 ℃. The mobile phase consisted of an aqueous solvent A (0.1% formic acid, v/v) and organic solvent B (acetonitrile with 0.1% formic acid, v/v). The elution gradient was as follows: 5–30% B (0–20 min); 30–95% B (20–27 min), maintained at 95% B (27–32 min); 95–5% B (32–33 min); and 5% B (33–38 min) to equilibrate the system.
(§6) The instrumental parameters of mass spectrometry were as follows: ion source gas 1 and gas 2 were both 55 psi, curtain gas was 35 psi, the CAD gas was 8 psi, and the ion source temperature was 550 °C. The ion spray voltage floating (ISVF) was set to 5500 V for positive mode and − 4500 V for negative mode. The collision energy (CE) and collision energy spread (CES) were set to 35 V and 15 eV, and declustering potential was 80 V. The mass-to-charge ratio (m/z) range was set to 50–1500 Da, with an accumulation time of 0.15 s. Data were collected by SCIEX OS software (version 3.3.0.12027, AB Sciex, Framingham, MA, USA) in information-dependent acquisition (IDA) mode.

SMILES	AUC(0-inf)	AUC(0-t)	Cmax	Tmax	half-life
C=C(C)[C@@H]1CC=C2C(=CC[C@]3(C)[C@@H]([C@@H](CCC=C(C)C)C(=O)O)[C@H](O)C[C@@]23C)[C@@]1(C)CCC(=O)O [Poricoic acid B]	2290 ± 621 ng·h/mL	2710 ± 417 ng·h/mL	214 ± 53.8 ng/mL	5.5 ± 0.96 h	4.11 ± 0.82 h
C=C(C)C1CC=C2C(=CCC3(C)C(C(CCC=C(C)CO)C(=O)O)C(O)CC23C)C1(C)CCC(=O)O (stereo not drawn) [Poricoic acid E]	223 ± 30.6 ng·h/mL	205 ± 25.1 ng·h/mL	16 ± 2.7 ng/mL	8.5 ± 1.5 h	6.64 ± 0.75 h
C=C(C)[C@@H]1CCC2=C(CC[C@]3(C)[C@@H]([C@@H](CCC=C(C)C)C(=O)O)[C@H](O)C[C@@]23C)[C@@]1(C)CCC(=O)O [Poricoic acid G]	4420 ± 367 ng·h/mL	4090 ± 442 ng·h/mL	470 ± 89.2 ng/mL	5.5 ± 0.96 h	3.5 ± 1.08 h
C=C(C)[C@@H]1CC=C2C(=CC[C@]3(C)[C@@H]([C@@H](CCC(=C)C(C)(C)O)C(=O)O)[C@H](O)C[C@@]23C)[C@@]1(C)CCC(=O)OC [Poricoic acid DM]	105 ± 13.6 ng·h/mL	77.1 ± 12.4 ng·h/mL	13.2 ± 2 ng/mL	4 ± 1.41 h	4.61 ± 1.21 h
C=C(C)C1CC=C2C(=CCC3(C)C(C(CCC(=C)C(C)(C)O)C(=O)O)C(O)CC23C)C1(C)CCC(=O)O (stereo not drawn) [Poricoic acid D]	82 ± 5.1 ng·h/mL	68 ± 10.1 ng·h/mL	7.5 ± 1.3 ng/mL	6.4 ± 1.72 h	5.51 ± 0.88 h
C=C(C)C1CC=C2C(=CCC3(C)C(C(CCC=C(C)C)C(=O)O)CCC23C)C1(C)CCC(=O)O (stereo not drawn) [16-Deoxyporicoic acid B]	2540 ± 264 ng·h/mL	1970 ± 280 ng·h/mL	290 ± 44.5 ng/mL	5.6 ± 0.75 h	4.95 ± 0.81 h

Experiment: in vivo
Conditions: male, Sprague-Dawley, rat, po, 36.99 g/kg
Procedure: as §1, §2, §3, §4, §5, §6

SMILES	AUC(0-inf)	AUC(0-t)	Cmax	Tmax	half-life
CC(C)C(=O)CCC(C(=O)O)C1C(O)CC2(C)C3=C(CCC12C)C1(C)CCC(O)C(C)(C)C1CC3 (stereo not drawn) [Daedaleanic acid B]	170 ± 27.6 ng·h/mL	129 ± 32.5 ng·h/mL	20.6 ± 0.8 ng/mL	1.35 ± 0.68 h	3.84 ± 0.75 h
CC(=CCCC(C(=O)O)C1C(O)CC2(C)C3=CCC4C(C)(CCC(O)C4(C)C)C3=CCC12C)CO (stereo not drawn) [Dihydroxydehydrotrametenoic acid]	3270 ± 142 ng·h/mL	3030 ± 356 ng·h/mL	308 ± 35.6 ng/mL	4.4 ± 0.75 h	4.98 ± 1.07 h
CC(C)=CCCC(C(=O)O)C1C(O)CC2(C)C3=CCC4C(C)(CCC(O)C4(C)C)C3=CCC12C (stereo not drawn) [16alpha-Hydroxydehydrotrametenolic acid]	136000 ng·h/mL	136000 ng·h/mL	16800 ng/mL	4.4 ± 0.75 h	1.78 ± 0.09 h
CC(C)=CC1CC(C2CCC3(C)C4=CCC5C(C)(CCC(O)C5(C)C)C4=CCC23C)C(=O)O1 (stereo not drawn) [Porilactone A]	9200 ± 744 ng·h/mL	9460 ± 501 ng·h/mL	846 ± 31.9 ng/mL	6.5 ± 1.89 h	2.15 ± 0.24 h

Experiment: not given
Conditions: rat, in vivo

SMILES	Absorption pattern of serum concentration-time curve
CC(C)=CC1CC(C2CCC3(C)C4=CCC5C(C)(CCC(O)C5(C)C)C4=CCC23C)C(=O)O1 (stereo not drawn) [Porilactone A]	double-peak absorption pattern
